Data as given in US20120028358A1, “METHOD FOR INCREASING RETROVIRAL INFECTIVITY” (priority 2010, published 2012).

Key:
[1] = system: rat PMVEC; test: Gamma-retroviral infection efficiency of PMVEC (percent fluorescent cells by FACS); format: cell-based; settings: for Retroviral infectivity versus control: increasing concentrations, Org 34517 0.1-30 μmol/L
Experimental: Cell cultures: Phoenix Retroviral Expression System ecotropic and amphotropic packaging cells were purchased from Orbigen, Inc. (San Diego, Calif.). […] Rat pulmonary microvascular endothelial cells (PMVEC), were obtained from our cell culture core at the University of South Alabama (King J, et al. Structural and functional characteristics of lung macro and microvascular endothelial phenotypes. Microvascular Res. 2004, March, 67(2). 139-151). Human glioblastoma cells (U87MG), and human mammary carcinoma cells (T47D) were obtained from ATCC. All cells were cultured in DMEM, 10% FBS, 2 mmol L-Glutamine and used for experiments at passages 4-9. All cells were grown in humidified incubators at 37° C. in 5% CO2. Cells were harvested by 0.05% trypsin/0.53 mM EDTA digestion, washed, re-suspended in cultured medium and analyzed directly by FACScan in the University of South Alabama Flow Cytometry Core. For cell cycle analysis cellular DNA was stained with […] of propridium iodide for 20 minutes as described elsewhere (48) and then analyzed by FACScan.
Vectors and delivery systems: pBMN-GFP (Orbigen, Inc., San Diego, Calif.), a retroviral vector that expresses GFP driven by the MMLV's promoter in Phoenix and other cells was used. In some experiments Murine Stem Cell Virus (MSCV) expressing mCherry and the hybrid retroviral vector Friend Murine Embryonic-stem cell Virus (FMEV) [for Friend Mink Cell Focus-forming (FMCF)/Murine Embryonic Stem cell Virus (MESV)](31) expressing DsRed2 were used in addition to MMLV. Two lentiviral vectors pLemiR (Open Biosystems, Huntsville, Ala.) and pLVX-DsRed-Monomer-C1 (Clontech Laboratories, Inc., Mountain View, Calif.) harboring turboRFP and DsRed as reporters were also used for comparison to gamma-retroviruses. Packaging cells were transfected with retroviral vectors using FuGENE 6 reagent following the manufacturer's instructions. For virus propagation, packaging cells were cultured in growth medium for 12-18 hours. Virus was collected with cultured medium, filtered, supplemented with hexadimethrine bromide (polybrene) to a final concentration of 4 μg/ml and applied directly to target cells.
Gamma-retroviral backbones containing genes encoding fluorescent proteins as reporters were propagated in Phoenix ecotropic packaging cells. Viral-conditioned supernatant was collected and applied to target cells (rat pulmonary microvascular endothelial cells, PMVEC).

[2] = target: T1, progesterone receptor (Homo sapiens, UniProt P06401); settings: cited from earlier work
T1 sequence (P06401 1-933): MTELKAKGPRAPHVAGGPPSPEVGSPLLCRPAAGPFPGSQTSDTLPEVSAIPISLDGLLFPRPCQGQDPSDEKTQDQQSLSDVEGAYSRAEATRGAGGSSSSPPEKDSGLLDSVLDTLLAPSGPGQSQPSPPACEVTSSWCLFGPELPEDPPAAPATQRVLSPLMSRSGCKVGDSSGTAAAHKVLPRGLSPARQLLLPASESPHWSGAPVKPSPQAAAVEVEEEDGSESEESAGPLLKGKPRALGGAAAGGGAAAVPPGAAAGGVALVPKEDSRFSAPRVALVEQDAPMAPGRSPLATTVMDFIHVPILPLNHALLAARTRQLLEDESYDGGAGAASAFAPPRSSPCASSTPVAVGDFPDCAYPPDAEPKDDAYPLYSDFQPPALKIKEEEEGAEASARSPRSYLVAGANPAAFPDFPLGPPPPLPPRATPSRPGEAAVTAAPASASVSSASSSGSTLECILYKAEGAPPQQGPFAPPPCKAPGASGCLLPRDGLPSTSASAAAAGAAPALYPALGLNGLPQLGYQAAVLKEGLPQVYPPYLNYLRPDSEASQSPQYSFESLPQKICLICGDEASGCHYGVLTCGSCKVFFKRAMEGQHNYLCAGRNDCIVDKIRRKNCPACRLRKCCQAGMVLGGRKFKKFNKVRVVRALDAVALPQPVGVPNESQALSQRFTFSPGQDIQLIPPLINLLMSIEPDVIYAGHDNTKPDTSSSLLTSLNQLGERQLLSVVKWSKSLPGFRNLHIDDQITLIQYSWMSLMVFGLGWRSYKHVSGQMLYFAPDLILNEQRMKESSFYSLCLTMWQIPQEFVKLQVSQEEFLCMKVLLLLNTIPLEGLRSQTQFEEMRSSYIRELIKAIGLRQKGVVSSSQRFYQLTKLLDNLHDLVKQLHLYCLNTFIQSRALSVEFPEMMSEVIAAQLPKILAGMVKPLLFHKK

[3] = target: T2, glucocorticoid receptor (Homo sapiens, UniProt P04150); settings: cited from earlier work
T2 sequence (P04150 1-777): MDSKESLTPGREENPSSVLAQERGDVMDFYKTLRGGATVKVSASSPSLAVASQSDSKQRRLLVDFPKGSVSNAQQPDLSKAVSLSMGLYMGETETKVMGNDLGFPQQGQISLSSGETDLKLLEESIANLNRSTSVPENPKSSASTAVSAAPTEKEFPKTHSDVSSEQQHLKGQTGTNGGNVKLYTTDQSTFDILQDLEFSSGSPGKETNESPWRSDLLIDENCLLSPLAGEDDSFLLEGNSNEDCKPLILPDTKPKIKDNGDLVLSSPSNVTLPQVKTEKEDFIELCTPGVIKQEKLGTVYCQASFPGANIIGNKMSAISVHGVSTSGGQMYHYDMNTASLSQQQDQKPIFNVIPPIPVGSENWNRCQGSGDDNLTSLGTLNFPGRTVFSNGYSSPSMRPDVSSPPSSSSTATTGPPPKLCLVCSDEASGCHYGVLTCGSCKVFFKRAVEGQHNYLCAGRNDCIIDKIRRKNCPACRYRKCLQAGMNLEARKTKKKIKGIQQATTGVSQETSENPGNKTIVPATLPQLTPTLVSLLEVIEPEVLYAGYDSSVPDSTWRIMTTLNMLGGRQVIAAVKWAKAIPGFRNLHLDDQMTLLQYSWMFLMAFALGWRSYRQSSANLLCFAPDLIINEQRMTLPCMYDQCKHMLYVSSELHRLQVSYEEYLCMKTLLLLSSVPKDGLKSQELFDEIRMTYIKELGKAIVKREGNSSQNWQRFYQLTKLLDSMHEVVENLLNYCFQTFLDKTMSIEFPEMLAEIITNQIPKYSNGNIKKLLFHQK

[4] = system: rat pulmonary microvascular endothelial cells (PMVEC); test: Percent GFP-positive (infected) target cells after conditioned medium from Phoenix cells; format: cell-based; settings: conditioned medium from Phoenix cells grown with dexamethasone, plateau at 10 nmol
[5] = system: Phoenix cells and PMVEC; test: Cell growth and survival of packaging and target cells

| SMILES | Retroviral infectivity versus control [1] | IC50 [2] | Potency in increasing retroviral infectivity relative to mifepristone [1] | IC50 [3] | Percentage of GFP-positive (infected) PMVEC [4] | Cell growth ([5]; over 7 days, retrovirus producing or target cells (data not shown)) | Adverse effects on cell growth or survival ([5]; packaging or target cells) |
| --- | --- | --- | --- | --- | --- | --- | --- |
| C=C1OC(CC)=NC12CCC1C3CCC4=CC(=O)CCC4=C3C(c3ccc(C(C)=O)cc3)CC12C (centres unmarked) [7453-102, 11b-[4-(acetyl)phenyl)-4′,5′-dihydro-2′-ethyl-5′-methylenespiro[estra-4,9-dien-17b,4′-oxazole]-3-one] | no effect | 0.34 nM |  |  |  |  |  |
| CC#C[C@]1(O)CC[C@H]2[C@@H]3CCC4=CC(=O)CCC4=C3[C@@H](c3ccc4c(c3)OCO4)C[C@@]21C [Org 34517] | significantly increased |  | less potent than mifepristone | 17.9 nM |  |  |  |
| C[C@@H]1C[C@H]2[C@@H]3CCC4=CC(=O)C=C[C@]4(C)[C@@]3(F)[C@@H](O)C[C@]2(C)[C@@]1(O)C(=O)CO [dexamethasone, Dexamethasone] |  |  |  |  | 45% | no effect | did not cause any evident adverse effects |
